These molecules were tested against T1, NLRP3 (Homo sapiens, UniProt Q96P20) (assay: THP-1 Cells Pyroptosis Assay). Conditions: THP-1 cells with 1.0 μg/ml LPS; compound 3 hours; nigericin 5 μM 1 hr; resazurin readout.
T1 construct: Seed THP-1 cells (25,000 cells/well) containing 1.0 μg/ml LPS in 40 μl of RPMI medium; host or cells: THP-1 cells
Assay type: cell-based
Summary of the method: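 THP-1 cells in serum-free RPMI primed with LPS (1 μg/ml FAC), incubated with compound 3 h at 37 °C, then nigericin (5 μM FAC) for 1 h. Supernatant removed after spin; viability read by resazurin (100 μM FAC) reduction after a further 1-2 h at 37 °C.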

T1 sequence (Q96P20 whole entry): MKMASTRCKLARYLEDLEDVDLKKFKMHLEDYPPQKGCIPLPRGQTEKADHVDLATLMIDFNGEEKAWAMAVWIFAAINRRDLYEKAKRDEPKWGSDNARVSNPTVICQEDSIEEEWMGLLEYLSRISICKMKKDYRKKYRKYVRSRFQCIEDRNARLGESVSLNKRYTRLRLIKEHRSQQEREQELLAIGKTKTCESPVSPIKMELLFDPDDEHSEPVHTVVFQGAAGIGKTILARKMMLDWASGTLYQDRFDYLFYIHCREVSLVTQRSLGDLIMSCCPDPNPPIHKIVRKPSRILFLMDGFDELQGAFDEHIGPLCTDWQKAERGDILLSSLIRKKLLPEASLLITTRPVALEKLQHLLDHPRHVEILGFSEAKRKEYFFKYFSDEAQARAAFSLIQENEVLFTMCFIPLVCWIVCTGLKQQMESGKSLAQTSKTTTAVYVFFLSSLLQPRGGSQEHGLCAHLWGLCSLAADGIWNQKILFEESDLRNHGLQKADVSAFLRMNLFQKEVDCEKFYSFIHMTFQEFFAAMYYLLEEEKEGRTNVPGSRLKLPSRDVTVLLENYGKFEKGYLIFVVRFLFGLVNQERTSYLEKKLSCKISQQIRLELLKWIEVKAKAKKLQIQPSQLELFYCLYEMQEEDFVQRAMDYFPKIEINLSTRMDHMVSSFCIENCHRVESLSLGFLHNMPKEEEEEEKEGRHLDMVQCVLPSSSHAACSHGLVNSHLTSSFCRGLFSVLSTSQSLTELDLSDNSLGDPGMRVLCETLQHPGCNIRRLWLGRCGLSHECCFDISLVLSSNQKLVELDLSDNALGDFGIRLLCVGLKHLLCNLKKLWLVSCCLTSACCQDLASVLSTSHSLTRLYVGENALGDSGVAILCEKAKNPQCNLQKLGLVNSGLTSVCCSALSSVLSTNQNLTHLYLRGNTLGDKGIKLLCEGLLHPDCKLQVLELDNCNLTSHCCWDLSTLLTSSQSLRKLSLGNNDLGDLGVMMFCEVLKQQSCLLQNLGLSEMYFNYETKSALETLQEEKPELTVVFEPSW

Row | Structure (SMILES) | IC50 [nM]
1 | Cc1cc(F)cc(O)c1-c1ccc2oc(N[C@@H]3CCCN(C)C3)nc2n1 [Example 50, 5-Fluoro-3-methyl-2-[2-[[(3R)-1-methyl-3-piperidyl]amino]oxazolo[4,5-b]pyridin-5-yl]phenol] | 1.7
2 | CCN1CCC[C@@H](Nc2nc3nc(-c4c(C)cc(F)cc4O)ccc3o2)C1 [Example 45, 2-[2-[[(3R)-1-Ethyl-3-piperidyl]amino]oxazolo[4,5-b]pyridin-5-yl]-5-fluoro-3-methyl-phenol] | 0.9
3 | CCN1CCC12CCN(c1nc3nc(-c4c(C)cc(C(F)(F)F)cc4O)ccc3o1)CC2 [Example 79, 2-[2-(1-Ethyl-1,7-diazaspiro[3.5]nonan-7-yl)oxazolo[4,5-b]pyridin-5-yl]-3-methyl-5-(trifluoromethyl)phenol] | 94.9
4 | Cc1cc(C(F)(F)F)cc(O)c1-c1ccc2[nH]c(C3CCCCN3C)nc2n1 (racemic) [Example 16, (rac)-3-Methyl-2-(2-(1-methylpiperidin-2-yl)-3H-imidazo[4,5-b]pyridin-5-yl)-5-(trifluoromethyl)phenol] | 330
5 | CCN1CC(CNc2nc3nc(-c4c(C)cc(Cl)cc4O)ccc3o2)C1 [Example 59, 5-Chloro-2-[2-[(1-ethylazetidin-3-yl)methylamino]oxazolo[4,5-b]pyridin-5-yl]-3-methyl-phenol] | 30.1
6 | Cc1cc(C(F)(F)F)cc(O)c1-c1cc(C(C)(C)O)c2oc(N[C@@H]3CCCN(C)C3)nc2n1 [Example 105, 2-[7-(1-Hydroxy-1-methyl-ethyl)-2-[[(3R)-1-methyl-3-piperidyl]amino]oxazolo[4,5-b]pyridin-5-yl]-3-methyl-5-(trifluoromethyl)phenol;2,2,2-trifluoroacetic acid] | 8.9
7 | Cc1cc(C(F)(F)F)cc(O)c1-c1ccc2oc(N3CCOCC3CN(C)C)nc2n1 (single isomer, unassigned) [Example 2A, 2-[2-[(3R or 3S)-3-[(Dimethylamino)methyl]morpholin-4-yl]oxazolo[4,5-b]pyridin-5-yl]-3-methyl-5-(trifluoromethyl)phenol] | 129
8 | CCN1CCC[C@@H](Nc2nc3nc(-c4c(C)cc(OC(F)(F)F)cc4O)ccc3o2)C1 [Example 137, 2-[2-[[(3R)-1-Ethyl-3-piperidyl]amino]oxazolo[4,5-b]pyridin-5-yl]-3-methyl-5-(trifluoromethoxy)phenol;2,2,2-trifluoroacetic acid] | 4.8
9 | Cc1cc(C(F)(F)F)cc(O)c1-c1ccc2oc(N3CCOC(CO)C3)nc2n1 (racemic) [Example 5, (rac)-[2-[2-(Hydroxymethyl)morpholin-4-yl]oxazolo[4,5-b]pyridin-5-yl]-3-methyl-5-(trifluoromethyl)phenol] | 31.9
10 | CCN1CCC[C@@H](Nc2nc3nc(-c4c(O)cc(C#N)cc4COC)ccc3o2)C1 [Example 110, 4-[2-[[(3R)-1-Ethyl-3-piperidyl]amino]oxazolo[4,5-b]pyridin-5-yl]-3-hydroxy-5-(methoxymethyl)benzonitrile;2,2,2-trifluoroacetic acid] | 5.8
11 | CCN1C[C@H](O)C[C@@H](Nc2nc3nc(-c4c(C)cc(Cl)cc4O)ccc3o2)C1 [Example 68, (3R,5R)-5-[[5-(4-Chloro-2-hydroxy-6-methyl-phenyl)oxazolo[4,5-b]pyridin-2-yl]amino]-1-ethyl-piperidin-3-ol;formic acid] | 62.4
12 | CCN1CCC[C@@H](Nc2nc3nc(-c4c(C)cc5c(c4O)CCO5)ccc3o2)C1 [Example 48, 5-[2-[[(3R)-1-Ethyl-3-piperidyl]amino]oxazolo[4,5-b]pyridin-5-yl]-6-methyl-2,3-dihydrobenzofuran-4-ol] | 1.2
13 | CCN1CCC[C@@H](Nc2nc3nc(-c4c(C)cc(C(F)(F)F)cc4O)ccc3o2)C1 [Example 14, 2-[2-[[(3R)-1-Ethyl-3-piperidyl]amino]oxazolo[4,5-b]pyridin-5-yl]-3-methyl-5-(trifluoromethyl)phenol] | 1
14 | Cc1cc(Cl)cc(O)c1-c1ccc2oc([C@H]3CCC(=O)NC3)nc2n1 (single isomer, unassigned) [Example 73A, (5S)-5-[5-(4-Chloro-2-hydroxy-6-methyl-phenyl)oxazolo[4,5-b]pyridin-2-yl]piperidin-2-one or (5R)-5-[5-(4-Chloro-2-hydroxy-6-methyl-phenyl)oxazolo[4,5-b]pyridin-2-yl]piperidin-2-one] | 18.7
15 | Cc1cc(C(F)(F)F)cc(O)c1-c1ccc2oc(N3CCC(CO)CC3)nc2n1 [Example 78, 2-[2-[4-(Hydroxymethyl)-1-piperidyl]oxazolo[4,5-b]pyridin-5-yl]-3-methyl-5-(trifluoromethyl)phenol] | 58.3
16 | Cc1cc(Cl)cc(O)c1-c1ccc2oc(NCC3CC(O)C3)nc2n1 (stereo not shown) [Example 92, 5-Chloro-2-[2-[(3-hydroxycyclobutyl)methylamino]oxazolo[4,5-b]pyridin-5-yl]-3-methyl-phenol] | 26.9
17 | Cc1cc(Cl)cc(O)c1-c1ccc2oc([C@@H]3CCC(=O)NC3)nc2n1 (single isomer, unassigned) [Example 73B, (5R)-5-[5-(4-Chloro-2-hydroxy-6-methyl-phenyl)oxazolo[4,5-b]pyridin-2-yl]piperidin-2-one or (5S)-5-[5-(4-chloro-2-hydroxy-6-methyl-phenyl)oxazolo[4,5-b]pyridin-2-yl]piperidin-2-one] | 78.7
18 | Cc1cc(C(F)(F)F)cc(O)c1-c1ccc2oc(N[C@@H]3CCCN(C)C3)nc2n1 [Example 15, 3-Methyl-2-[2-[[(3R)-1-methyl-3-piperidyl]amino]oxazolo[4,5-b]pyridin-5-yl]-5-(trifluoromethyl)phenol] | 0.7
19 | CN1CCC[C@@H](Nc2nc3nc(-c4c(O)cc(Cl)cc4CO)ccc3o2)C1 [Example 94, 5-Chloro-3-(hydroxymethyl)-2-[2-[[(3R)-1-methyl-3-piperidyl]amino]oxazolo[4,5-b]pyridin-5-yl]phenol] | 11.9
20 | CCN1CCC[C@@H](Nc2nc3nc(-c4c(C)cc(C(F)(F)F)cc4O)cc(NC)c3o2)C1 [Example 103, 2-[2-[[(3R)-1-Ethyl-3-piperidyl]amino]-7-(methylamino)oxazolo[4,5-b]pyridin-5-yl]-3-methyl-5-(trifluoromethyl)phenol] | 4.6
21 | COCCN(c1nc2nc(-c3c(C)cc(Cl)cc3O)ccc2o1)[C@@H]1CCCN(C)C1 [Example 90, 5-Chloro-2-[2-[2-methoxyethyl-[(3R)-1-methyl-3-piperidyl]amino]oxazolo[4,5-b]pyridin-5-yl]-3-methyl-phenol;formic acid] | 22.6
22 | Cc1cc(Cl)cc(O)c1-c1ccc2oc(C3CCC(=O)NC3)nc2n1 (stereo not shown) [Example 73, 5-[5-(4-Chloro-2-hydroxy-6-methyl-phenyl)oxazolo[4,5-b]pyridin-2-yl]piperidin-2-one] | 30
23 | CCN1CCC[C@@H](Nc2nc3nc(-c4c(O)cc(C(F)(F)F)cc4F)ccc3o2)C1 [Example 53, 2-[2-[[(3R)-1-Ethyl-3-piperidyl]amino]oxazolo[4,5-b]pyridin-5-yl]-3-fluoro-5-(trifluoromethyl)phenol] | 2.6
24 | Cc1cc(C(F)(F)F)cc(O)c1-c1ccc2[nH]c(N3CCNCC3)nc2n1 [Example 8, 3-Methyl-2-(2-piperazin-1-yl-1H-imidazo[4,5-b]pyridin-5-yl)-5-(trifluoromethyl)phenol;2,2,2-trifluoroacetic acid] | 302
25 | Cc1cc(C2CC2)cc(O)c1-c1ccc2oc(N[C@@H]3CCCN(C)C3)nc2n1 [Example 36, 5-Cyclopropyl-3-methyl-2-[2-[[(3R)-1-methyl-3-piperidyl]amino]oxazolo[4,5-b]pyridin-5-yl]phenol] | 32
